# System: moderate-to-severe chronic spontaneous urticaria (CSU)
# Assay: Phase 2 CSU study: urticaria activity score over 7 days (UAS7)
# Assay type: in vivo, human
# Details: ITT
# Text: The study comprises a 12 week, randomized, double-blind, placebo-controlled, multi-center, dose-ranging efficacy and safety phase, followed by a 40 week open label extension (OLE) phase (see FIG. 1). The study consists of three phases and an optional OLE phase. […] Clinically, CSU is characterized by the spontaneous and recurrent appearance of pruritic hives. The proposed primary endpoints were the UAS7 at Week 12 in EU and EU reference countries and the ISS7 in the US. Regardless of where a participant was from, all assessments were the same. The UAS7 score is a composite score containing both the HSS7 and the ISS7. This allowed a global assessment of the two key components of urticaria: hives and itch. […] The UAS is a validated PRO measure. […] The daily UAS scores range from 0 to 6 point/day. […] Patients were to complete the UAS using the e-diary. […] The following secondary endpoints were to be analyzed using the same approach as for the primary endpoint: • Change from baseline in UAS7 at Week 4 • Change from baseline in UAS7 at Week 12 (for US and US reference countries) • Change from baseline in ISS7 at Week 12 (except US and US reference countries) • Change from baseline in HSS7 at Week 12 The following responder secondary endpoints were to be analyzed using the Cochran-Mantel-Haenszel test adjusted by region: • Proportion of participants with UAS7<6 at Week 12 • Proportion of participants with UAS7=0 at Week 12 Participants who received selected prohibited medications and/or rescue medications were to be considered as non-responders for time points after the medication usage. For other participants, all available data including those collected during the off-treatment period were to be used to determine the responder/non-responder status. Missing data were to be considered as non-responders.
smiles,measurement,setting,value
"CC(C)(C=C(C#N)C(=O)N1CCC[C@@H](n2nc(-c3ccc(Oc4ccccc4)cc3F)c3c(N)ncnc32)C1)N1CCN(C2COC2)CC1 [rilzabrutinib, (R)-2-[3-[4-amino-3-(2-fluoro-4-phenoxy-phenyl)pyrazolo[3,4-d]pyrimidin-1-yl]piperidine-1-carbonyl]-4-methyl-4-[4-(oxetan-3-yl)piperazin-1-yl]pent-2-enenitrile]","Responder n (%), UAS7 ≤6","400 mg QPM, Week 12",2 (5.3) n (%)
same,"Imputed non-responder n (%), UAS7 = 0","400 mg TID, Week 1",0 n (%)
same,"Imputed non-responder n (%), UAS7 ≤6","400 mg TID, Week 1",0 n (%)
same,"Non-responder n (%), UAS7 = 0","400 mg TID, Week 1",40 (97.6) n (%)
same,"Non-responder n (%), UAS7 ≤6","400 mg TID, Week 1",31 (75.6) n (%)
same,"OR for rilzabrutinib vs. placebo, UAS7 = 0","400 mg TID, Week 1",1.084
same,"RRD (%) for rilzabrutinib vs. placebo, UAS7 = 0","400 mg TID, Week 1",0.2 %
same,"RRD (%) for rilzabrutinib vs. placebo, UAS7 ≤6","400 mg TID, Week 1",17.6 %
same,"Responder n (%), UAS7 = 0","400 mg TID, Week 1",1 (2.4) n (%)
same,"Responder n (%), UAS7 ≤6","400 mg TID, Week 1",10 (24.4) n (%)
same,"Imputed non-responder n (%), UAS7 = 0","400 mg TID, Week 2",0 n (%)
same,"Imputed non-responder n (%), UAS7 ≤6","400 mg TID, Week 2",0 n (%)
same,"Non-responder n (%), UAS7 = 0","400 mg TID, Week 2",35 (85.4) n (%)
same,"Non-responder n (%), UAS7 ≤6","400 mg TID, Week 2",30 (73.2) n (%)
same,"OR for rilzabrutinib vs. placebo, UAS7 = 0","400 mg TID, Week 2",6.522
same,"OR for rilzabrutinib vs. placebo, UAS7 ≤6","400 mg TID, Week 2",6.049
same,"RRD (%) for rilzabrutinib vs. placebo, UAS7 = 0","400 mg TID, Week 2",11.0 %
same,"RRD (%) for rilzabrutinib vs. placebo, UAS7 ≤6","400 mg TID, Week 2",19.4 %
same,"Responder n (%), UAS7 = 0","400 mg TID, Week 2",6 (14.6) n (%)
same,"Responder n (%), UAS7 ≤6","400 mg TID, Week 2",11 (26.8) n (%)
same,"Imputed non-responder n (%), UAS7 = 0","400 mg TID, Week 3",0 n (%)
same,"Imputed non-responder n (%), UAS7 ≤6","400 mg TID, Week 3",0 n (%)
same,"Non-responder n (%), UAS7 = 0","400 mg TID, Week 3",37 (90.2) n (%)
same,"Non-responder n (%), UAS7 ≤6","400 mg TID, Week 3",30 (73.2) n (%)
same,"OR for rilzabrutinib vs. placebo, UAS7 = 0","400 mg TID, Week 3",4.480
same,"OR for rilzabrutinib vs. placebo, UAS7 ≤6","400 mg TID, Week 3",3.055
same,"RRD (%) for rilzabrutinib vs. placebo, UAS7 = 0","400 mg TID, Week 3",6.9 %
same,"RRD (%) for rilzabrutinib vs. placebo, UAS7 ≤6","400 mg TID, Week 3",14.9 %
same,"Responder n (%), UAS7 = 0","400 mg TID, Week 3",4 (9.8) n (%)
same,"Responder n (%), UAS7 ≤6","400 mg TID, Week 3",11 (26.8) n (%)
same,"Imputed non-responder n (%), UAS7 = 0","400 mg TID, Week 4",3 (7.3) n (%)
same,"Imputed non-responder n (%), UAS7 ≤6","400 mg TID, Week 4",3 (7.3) n (%)
same,"Non-responder n (%), UAS7 = 0","400 mg TID, Week 4",37 (90.2) n (%)
same,"Non-responder n (%), UAS7 ≤6","400 mg TID, Week 4",34 (82.9) n (%)
same,"OR for rilzabrutinib vs. placebo, UAS7 = 0","400 mg TID, Week 4",1.867
same,"OR for rilzabrutinib vs. placebo, UAS7 ≤6","400 mg TID, Week 4",1.217
same,"RRD (%) for rilzabrutinib vs. placebo, UAS7 = 0","400 mg TID, Week 4",4.0 %
same,"RRD (%) for rilzabrutinib vs. placebo, UAS7 ≤6","400 mg TID, Week 4",2.4 %
same,"Responder n (%), UAS7 = 0","400 mg TID, Week 4",4 (9.8) n (%)
same,"Responder n (%), UAS7 ≤6","400 mg TID, Week 4",7 (17.1) n (%)
same,"Imputed non-responder n (%), UAS7 = 0","400 mg TID, Week 5",3 (7.3) n (%)
same,"Imputed non-responder n (%), UAS7 ≤6","400 mg TID, Week 5",3 (7.3) n (%)
same,"Non-responder n (%), UAS7 = 0","400 mg TID, Week 5",34 (82.9) n (%)
same,"Non-responder n (%), UAS7 ≤6","400 mg TID, Week 5",27 (65.9) n (%)
same,"OR for rilzabrutinib vs. placebo, UAS7 = 0","400 mg TID, Week 5",7.606
same,"OR for rilzabrutinib vs. placebo, UAS7 ≤6","400 mg TID, Week 5",8.858
same,"RRD (%) for rilzabrutinib vs. placebo, UAS7 = 0","400 mg TID, Week 5",13.2 %
same,"RRD (%) for rilzabrutinib vs. placebo, UAS7 ≤6","400 mg TID, Week 5",26.0 %
same,"Responder n (%), UAS7 = 0","400 mg TID, Week 5",7 (17.1) n (%)
same,"Responder n (%), UAS7 ≤6","400 mg TID, Week 5",14 (34.1) n (%)
same,"Imputed non-responder n (%), UAS7 = 0","400 mg TID, Week 6",5 (12.2) n (%)
same,"Imputed non-responder n (%), UAS7 ≤6","400 mg TID, Week 6",5 (12.2) n (%)
same,"Non-responder n (%), UAS7 = 0","400 mg TID, Week 6",32 (78.0) n (%)
same,"Non-responder n (%), UAS7 ≤6","400 mg TID, Week 6",28 (68.3) n (%)
same,"OR for rilzabrutinib vs. placebo, UAS7 = 0","400 mg TID, Week 6",9.649
same,"OR for rilzabrutinib vs. placebo, UAS7 ≤6","400 mg TID, Week 6",2.273
same,"RRD (%) for rilzabrutinib vs. placebo, UAS7 = 0","400 mg TID, Week 6",17.2 %
same,"RRD (%) for rilzabrutinib vs. placebo, UAS7 ≤6","400 mg TID, Week 6",14.2 %
same,"Responder n (%), UAS7 = 0","400 mg TID, Week 6",9 (22.0) n (%)
same,"Responder n (%), UAS7 ≤6","400 mg TID, Week 6",13 (31.7) n (%)
same,"Imputed non-responder n (%), UAS7 = 0","400 mg TID, Week 7",6 (14.6) n (%)
same,"Imputed non-responder n (%), UAS7 ≤6","400 mg TID, Week 7",6 (14.6) n (%)
same,"Non-responder n (%), UAS7 = 0","400 mg TID, Week 7",37 (90.2) n (%)
same,"Non-responder n (%), UAS7 ≤6","400 mg TID, Week 7",30 (73.2) n (%)
same,"OR for rilzabrutinib vs. placebo, UAS7 = 0","400 mg TID, Week 7",4.480
same,"OR for rilzabrutinib vs. placebo, UAS7 ≤6","400 mg TID, Week 7",3.247

# — patent publication US20260256792A1, “TREATMENT OF CHRONIC SPONTANEOUS URTICARIA BY ADMINISTERING (R)-2-[3-[4-AMINO-3-(2-FLUORO-4-PHENOXY-PHENYL)PYRAZOLO[3,4-D]PYRIMIDIN-1-YL]PIPERIDINE-1-CARBONYL]-4-METHYL-4-[4-(OXETAN-3-YL)PIPERAZIN-1-YL]PENT-2-ENENITRILE” (priority 2023, published 2026)
